Source: patent publication US11415579B2, “Assay for measuring a rate of reaction between a target and a ligand candidate” (Imperial College Innovations Ltd., priority 2016, dated 2022)

What was measured:
[1] = Kinetic thiol consumption assay with model thiol glutathione; assay type: physicochemical; parameters: Rate constant with glutathione (k(GSH)): unit not given here; settings: for Rate constant with glutathione (k(GSH)): 500 μM ligand, 5 μM thiol, phosphate buffer pH 8; for Rate constant with Glutathione: Protein: Glutathione, cysteine position NA, in h-1
Procedure, shortened: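 Rate constants for acrylamide reaction with 5 μM glutathione come from first-order exponential fits of normalized fluorescence decay (ex 380, em 470 nm). Reactions run in degassed phosphate buffer at pH 8 containing TCEP beads, room temperature.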

[2] = biological target: T1, human cyclin-dependent kinase 2 (Cdk2) (Homo sapiens, UniProt P24941); assay: Kinetic thiol consumption assay with wild type Cdk2 (C177); assay type: binding; parameters: key to Rate enhancement, Cdk2 WT: k(Cdk2) divided by k(model thiol); Rate constant with Cdk2 (k(Cdk2)): unit not given here; settings: for Rate constant with Cdk2 (k(Cdk2)): 500 μM ligand, 5 μM thiol, phosphate buffer pH 8; for Rate enhancement, Cdk2 WT: no additional mutations; for Rate constant with Cdk2 WT: Protein: Cdk2, cysteine position WT, in h^-1; for k(Cdk2)/k(Cdk2_mut) rate enhancement: model thiol Cdk2[C177A, F80C, K278C]; for k(Cdk2)/k(GSH) rate enhancement: model thiol glutathione
T1 construct: poly-histidine; made in house; host or cells: E. coli
Procedure, shortened: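 His-tagged human Cdk2 from E. coli (sole surface cysteine C177) or a model thiol, each 5 μM in degassed phosphate buffer pH 8 with immobilized TCEP, reacted with acrylamides at room temperature. Fluorescence (ex 380/em 470) normalized to DMSO/thiol control over time; first-order rate constants, Cdk2 rate divided by model-thiol rate.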

Cdk2[C177A, F80C, K278C] = biological target: T2, Cdk2[C177A, F80C, K278C] (Homo sapiens, UniProt P24941, C177A/F80C/K278C); assay: Kinetic thiol consumption assay with mutant Cdk2 as model thiol; assay type: binding; parameters: unit not given here; settings: 500 μM ligand, 5 μM thiol, phosphate buffer pH 8
T2 construct: poly-histidine; made in house; host or cells: E. coli
Method: A library of 120 acrylamides was screened against a) human cyclin-dependent kinase 2 (Cdk2, which contains one surface exposed cysteine residue—C177), prepared by cloning cDNA into the pRSETA bacterial expression vector to generate a poly-histidine tagged Cdk2 fusion that was purified from E. coli using standard techniques, and b) a model thiol (specific details are given below). The structures of these 120 acrylamides are set out in Table 1, above.
To wells containing 150 μL thiol (Cdk2 or model thiol) (5 μM) in degassed phosphate buffer (pH 8) was added immobilized TCEP beads (2% v/v).
After incubation of the fluorescence plates for 1 hour at room temperature, fluorescence measurements (excitation/emission of 380/470 nm) were taken on a PerkinElmer EnVision multilabel plate reader and processed with EnVision Workstation version 1.12.
Fluorescence measurements were normalized against a DMSO/thiol only control and plotted against time.
Rate constants were calculated using GraphPad software Prism version 6 by fitting a first order exponential decay to the data. The rate constant for each acrylamide with Cdk2 was divided by the rate constant for that fragment with the model thiol to provide the rate enhancement for each ligand candidate.
The model thiol used in Example 2 is a mutant form of human Cdk2 (C177A, F80C, K278C) which contains two engineered surface exposed cysteine residues. Mutations were introduced by site-directed mutagenesis and the resulting cDNA was cloned into the pRSETA bacterial expression vector to generate a poly-histidine tagged Cdk2 fusion that was purified from E. coli using standard techniques.

Cdk2(C177A, F80C) = biological target: T3, Cdk2(C177A, F80C) (Homo sapiens, UniProt P24941, C177A/F80C); assay: Kinetic thiol consumption assay with Cdk2 mutant F80C, incl. kobs versus concentration (Kd, k2); assay type: binding; parameters: key to Rate enhancement, Cdk2 F80C: Cdk2 rate constant divided by model-thiol rate constant; settings: additional mutation C177A; for Rate constant with Cdk2 F80C: Protein: Cdk2, cysteine position F80C, in h^-1
T3 construct: poly-histidine; made in house; host or cells: E. coli
Procedure, shortened: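 His-tagged Cdk2(C177A/F80C) from E. coli or model thiol, 5 μM in degassed phosphate buffer pH 8 with TCEP beads, reacted with acrylamide ligands; fluorescence (ex/em 380/470 nm) normalized to DMSO control and fitted to first-order decay for kobs. Kd and k2 obtained from hyperbolic fit of kobs versus ligand concentration.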

Cdk2(H71C) (C177A) = biological target: T4, Cdk2(H71C) (C177A) (Homo sapiens, UniProt P24941, C177A/H71C); assay: Kinetic thiol consumption assay with Cdk2 mutant H71C; assay type: binding; parameters: key to Rate enhancement, Cdk2 H71C: rate constant with Cdk2 ÷ rate constant with model thiol (fold); settings: additional mutation C177A; for Rate constant with Cdk2 H71C: Protein: Cdk2, cysteine position H71C, in h^-1
T4 construct: poly-histidine; made in house; host or cells: E. coli
Procedure, shortened: (§1)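 His-tagged single-surface-cysteine Cdk2 mutants (C177A background) from E. coli, 5 μM in degassed phosphate buffer pH 8, pre-treated with immobilized TCEP beads. Fluorescence (ex/em 380/470 nm) read after 1 h at room temperature, normalized to DMSO/thiol-only control; first-order decay fits gave rate constants, divided by model-thiol rate for rate enhancement.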

Cdk2(S276C) (C177A) = biological target: T5, Cdk2(S276C) (C177A) (Homo sapiens, UniProt P24941, C177A/S276C); assay: Kinetic thiol consumption assay with Cdk2 mutant S276C; assay type: binding; parameters: key to Rate enhancement, Cdk2 S276C: rate constant with Cdk2 ÷ rate constant with model thiol (fold); settings: additional mutation C177A; for Rate constant with Cdk2 S276C: Protein: Cdk2, cysteine position S276C, in h^-1
T5 construct: poly-histidine; made in house; host or cells: E. coli
Procedure, shortened: as §1

Cdk2(N272C) (C177A) = biological target: T6, Cdk2(N272C) (C177A) (Homo sapiens, UniProt P24941, C177A/N272C); assay: Kinetic thiol consumption assay with Cdk2 mutant N272C; assay type: binding; parameters: key to Rate enhancement, Cdk2 N272: rate constant with Cdk2 ÷ rate constant with model thiol (fold); settings: for Rate enhancement, Cdk2 N272: Cdk2 N272, additional mutation C177A; for Rate constant with Cdk2 N272C: Protein: Cdk2, cysteine position N272C, additional mutation C177A, in h^-1
T6 construct: poly-histidine; made in house; host or cells: E. coli
Procedure, shortened: as §1

Cdk2(T182C) (C177A) = biological target: T7, Cdk2(T182C) (C177A) (Homo sapiens, UniProt P24941, C177A/T182C); assay: Kinetic thiol consumption assay with Cdk2 mutant T182C; assay type: binding; parameters: key to Rate enhancement, Cdk2 T182C: rate constant with Cdk2 ÷ rate constant with model thiol (fold); settings: additional mutation C177A; for Rate constant with Cdk2 T182C: Protein: Cdk2, cysteine position T182C, in h^-1
T7 construct: poly-histidine; made in house; host or cells: E. coli
Procedure, shortened: as §1

Cdk2(R122C) (C177A) = biological target: T8, Cdk2(R122C) (C177A) (Homo sapiens, UniProt P24941, C177A/R122C); assay: Kinetic thiol consumption assay with Cdk2 mutant R122C; assay type: binding; parameters: key to Rate enhancement, Cdk2 R122C: rate constant with Cdk2 ÷ rate constant with model thiol (fold); settings: additional mutation C177A; for Rate constant with Cdk2 R122C: Protein: Cdk2, cysteine position R122C, in h-1
T8 construct: poly-histidine; made in house; host or cells: E. coli
Procedure, shortened: as §1

Cdk2(S181C) (C177A) = biological target: T9, Cdk2(S181C) (C177A) (Homo sapiens, UniProt P24941, C177A/S181C); assay: Kinetic thiol consumption assay with Cdk2 mutant S181C; assay type: binding; parameters: key to Rate enhancement, Cdk2 S181C: rate constant with Cdk2 ÷ rate constant with model thiol (fold); settings: additional mutation C177A; for Rate constant with Cdk2 S181C: Protein: Cdk2, cysteine position S181C, in h^-1
T9 construct: poly-histidine; made in house; host or cells: E. coli
Procedure, shortened: as §1

Row | Rate constant with Cdk2 (k(Cdk2)) [2] | Rate enhancement, Cdk2 WT [2] | Rate constant with Cdk2 WT [2] | k(Cdk2)/k(Cdk2_mut) rate enhancement [2] | k(Cdk2)/k(GSH) rate enhancement [2] | Rate constant with Cdk2[C177A, F80C, K278C] (k(Cdk2_mut)) (Cdk2[C177A, F80C, K278C]) | Rate enhancement, Cdk2 F80C (Cdk2(C177A, F80C)) | Rate constant with Cdk2 F80C (Cdk2(C177A, F80C)) | Rate enhancement, Cdk2 H71C (Cdk2(H71C) (C177A)) | Rate enhancement, Cdk2 S276C (Cdk2(S276C) (C177A)) | Rate constant with Cdk2 S276C (Cdk2(S276C) (C177A)) | Rate enhancement, Cdk2 N272 (Cdk2(N272C) (C177A)) | Rate constant with Cdk2 N272C (Cdk2(N272C) (C177A)) | Rate enhancement, Cdk2 T182C (Cdk2(T182C) (C177A)) | Rate constant with Cdk2 T182C (Cdk2(T182C) (C177A)) | Rate enhancement, Cdk2 R122C (Cdk2(R122C) (C177A)) | Rate enhancement, Cdk2 S181C (Cdk2(S181C) (C177A)) | Rate constant with Cdk2 S181C (Cdk2(S181C) (C177A)) | SMILES | Rate constant with glutathione (k(GSH)) [1] | Rate constant with Glutathione [1] | other results
1 | 0.00219 | 0.3657 | 0.002191 | 1.879 | 0.7753 | 0.00117 | 0.3899 | 0.002336 | 0 | 0.1643 | 0.0009842 | 0.7423 | 0.004448 | 2.502 | 0.01499 | 0.4317 | 0.9743 | 0.005838 | C=CC(=O)NCC1CCCN1S(=O)(=O)c1ccc(C(=O)O)cc1 (stereo not shown) [BN122] | 0.00283 | 0.005992 | Rate constant with Cdk2 R122C (Cdk2(R122C) (C177A)): 0.002587
2 | 0.0019 | 1.86 | 0.002863 | 1.136 | 1.213 | 0.00167 | 0.6901 | 0.001062 | 2.5393E−11 | 0.7693 | 0.001184 | 1.006 | 0.001549 | 0.679 | 0.001045 | 0.125 | 1.1306E−11 | 1.74E−14 | C=CC(=O)NCc1ccc(F)cc1 [BN-62] | 0.00157 | 0.001539 | Rate constant with Cdk2 H71C (Cdk2(H71C) (C177A)): 3.908E−14; Rate constant with Cdk2 R122C (Cdk2(R122C) (C177A)): 0.0001923
3 | 0.00194 | 1.461 | 0.002998 | 0.5882 | 0.9011 | 0.0033 | 0.5692 | 0.001168 | 3.1842E−11 | 0.393 | 0.0008064 | 0.5 | 0.001026 | 0.7193 | 0.001476 | 0 | 0.4386 | 0.0009 | C=CC(=O)NCc1ccc(OC)cc1 [BN-63] | 0.00215 | 0.002052 | Rate constant with Cdk2 H71C (Cdk2(H71C) (C177A)): 6.534E−14
